The values that follow are results of earlier work, collected in patent US12194020B2, “Reversing baldness through cannabinoid receptor activation” (priority 2017, dated 2025).

As usually defined, the pIC50 is the IC50 on a negative log10 scale, so that one unit is a factor of ten.

For series [1], the system named is human scalp hair follicles (HF). To be noted: human HF organ culture.
The target in a further series is CB2 (Homo sapiens, UniProt P34972).
The conditions of series [2]: bimatoprost applied to the base of the fingernails.
The next series concerns NO production. To be noted: read-out: IC50, inhibits NO production.

pIC50: −log10 of the molar value.

Chain of CB2 (P34972 whole entry, species assumed): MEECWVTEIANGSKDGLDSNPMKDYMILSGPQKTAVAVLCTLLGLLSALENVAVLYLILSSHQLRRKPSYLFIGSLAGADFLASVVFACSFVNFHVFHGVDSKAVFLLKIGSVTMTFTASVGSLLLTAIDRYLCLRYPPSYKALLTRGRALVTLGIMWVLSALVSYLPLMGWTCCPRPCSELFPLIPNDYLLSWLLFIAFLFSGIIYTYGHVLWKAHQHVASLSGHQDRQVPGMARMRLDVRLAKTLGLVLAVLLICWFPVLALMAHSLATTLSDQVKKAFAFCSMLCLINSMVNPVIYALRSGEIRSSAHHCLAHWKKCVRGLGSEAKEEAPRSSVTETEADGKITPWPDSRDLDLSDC

On to `CCCCC/C=C\C/C=C\C/C=C\C/C=C\CCCC(=O)NCCO` [AEA, N-arachidonoylethanolamide], for which, in series [1], the “apoptosis of cultured human HF / hair matrix keratinocytes” value is “stimulates apoptosis”; the “hair matrix / HF keratinocyte proliferation” value is “significantly (P<0.05) and dose-dependently inhibited”; the hair shaft elongation entry is “significantly (P<0.05) and dose-dependently inhibited”. Turning to `Cc1c(C(=O)NN2CCCCC2)nn(-c2ccc(Cl)cc2Cl)c1-c1ccc(Cl)cc1` [SR141716A], on CB2, the “affinity for CB2” value is listed as “very low affinity”. As to `CCCCCc1cc(O)c2c(c1)OC(C)(C)[C@@H]1CCC(C)=C[C@@H]21` [THC, Δ^9-tetrahydrocannabinol], in series [1], the “apoptosis of cultured human HF / hair matrix keratinocytes” value was “induced”, the catagen development result is “premature catagen development”, the “hair matrix / HF keratinocyte proliferation” value is “suppressed proliferation” and the hair shaft elongation entry is listed as “significantly inhibited”.

Regarding `CCNC(=O)CCC/C=C\C[C@@H]1[C@@H](/C=C/[C@@H](O)CCc2ccccc2)[C@H](O)C[C@@H]1O` [bimatoprost], in series [2], the “increase in fingernail growth from baseline” value was 16.9%.

Turning to `C=CCc1ccc(O)c(-c2cc(CC=C)ccc2O)c1` [magnolol], the negative logarithm of the IC50 (pIC50) in the series on NO production is approximately 5.21. In the case of desulfohaplosamate, at CB2, the “affinity for CB2” value was “higher affinity”. Consider haplosamate A, for which the “affinity for CB1” value with CB1 is “strong affinity”.
